In paper PMC5363373, “Zirconium tetraazamacrocycle complexes display extraordinary stability and provide a new strategy for zirconium-89-based radiopharmaceutical development” (Chemical Science, 2016):

Tests used:
[1] = In vitro metal competition study; format: physicochemical; conditions: PBS pH 7.4, 37 C
Description: In vitro Metal Competition study. To a solution of metal cations [iron (III) chloride, cobalt (II) chloride, zinc (II) chloride, copper (II) chloride, magnesium (II) chloride, gallium (III) nitrate, gadolinium (III) chloride] (1 mM, 200 µL), was added 89Zr-labeled complex (0.1 mM, 10 µL, 80 μCi, 2.96 MBq) in PBS, pH 7.4. The resulting solutions (n = 3) were incubated at 37 °C for 7 days in a thermomixer. Dissociation of 89Zr from 89Zr-complexes was monitored by radio-TLC at 2 h, 1 d, 4 d and 7 d time point. All studies were performed in triplicate.

[2] = In vitro EDTA challenge study; format: physicochemical
Description: In vitro EDTA challenge study. In vitro EDTA challenge study was carried out by adding 10 µL of each 89Zr-labeled complex (70 μCi, 2.59 MBq) to 500 µL of EDTA (10 mM, 50 mM and 100 mM: pH 5 and pH 7) with a 1:100, 1:500, and 1:1000 ratio of ligand/EDTA. The solutions (n=4) were incubated at 37 °C for 7 days in a thermomixer. Samples were analyzed at 30 min, 1 h, 3 h, 6 h, 1 d, 3 d, 5 d and 7 d post administration to EDTA by radio-TLC using Varian ITLC-SA strips and 0.1 M EDTA (pH 5) as the mobile phase and gamma counting using an energy window of 500-1500 keV and standard protocols .

[3] = In vitro serum stability (radio-ITLC); format: in vitro ADME; conditions: 37 C, after 7 days
Description: In vitro serum stability. In vitro serum stability was carried out by adding 10 µL of each 89Zr-labeled complex (70 μCi, 2.59 MBq) to 500 µL of human serum. The solutions (n=4) were incubated at 37 °C for 7 days and were analyzed daily for 1 week by radio -TLC using Varian ITLC-SA strips and 0.1 M EDTA (pH 5) as the mobile phase and gamma counting using an energy window of 500-1500 keV and standard protocols . Serum samples were also analyzed after 7 days by size exclusion chromatography (SEC) using a Superdex 200 10/300 GLTM column (GE Healthcare Life Sciences, Piscataway, NJ) and phosphate buffered saline (PBS) as eluent with a flow rate of 0.5 mL/min.
Figure S30. Radio-ITLC of 89Zr-DOTA solution in human serum at 37 °C after 0 h (a) and 7 days (b). […]

Biodistribution studies = format: in vivo, female NIH Swiss mice; conditions: mice, intravenous, 72 h post-injection
Description: Biodistribution Studies. Biodistribution studies were conducted using a modified literature procedure. 7 Briefly, female NIH Swiss mice (6-8 wk old, n=6) were injected with each 89Zr-labeled complex (0.55 MBq (15 μCi)/mouse) via the tail vein, and sacrificed at 2, 4, 24, 48, 72 h post-injection. Organs and tissues of interest were excised, weighted, and counted on a Perkin Elmer 2480 Wizard® gamma counter (Waltham, MA). The percent injected dose per gram (%ID/g) and percent injected dose per organ (%ID/organ) were calculated by comparison to a weighed, counted standard for each group (Tables S9 – S12).
Statistical Methods. All of the data are presented as mean±SD or mean (95% Confidence Interval). For statistical classification a student’s t test (two-tailed, unpaired) was performed using GraphPad Prism (San Diego, CA). Any p<0.05 was considered significant.

In the case of `O=P1(O)CN2CCN3CCN4CCN(CC2)CP(=O)(O)[O][89Zr]([O]1)([O]P(=O)(O)C3)[O]P(=O)(O)C4` [89Zr-DOTP], the “% Intact of 89Zr-complexes” value ([1]; Co2+, 2 h) is reported as 99.1 ± 0.2%, the “% Intact of 89Zr-complexes” value ([1]; Co2+, 1 d) is reported as 97.2 ± 0.1% and the “% Intact of 89Zr-complexes” value ([1]; Co2+, 4 d) is reported as 95.3 ± 0.5%. For the same compound, the “% Intact of 89Zr-complexes” value ([1]; Co2+, 7 d) was 93.5 ± 1.3%, the “% Intact of 89Zr-complexes” value ([1]; Cu2+, 2 h) was 98.4 ± 0.1% and the “% Intact of 89Zr-complexes” value ([1]; Cu2+, 1 d) was 95.4 ± 0.2%. For the same compound, the “% Intact of 89Zr-complexes” value ([1]; Cu2+, 4 d) was 97.5 ± 0.7%, the “% Intact of 89Zr-complexes” value ([1]; Cu2+, 7 d) was 94.4 ± 1.3% and the “% Intact of 89Zr-complexes” value ([1]; Fe3+, 2 h) was 99.3 ± 0.1%. For the same compound, the “% Intact of 89Zr-complexes” value ([1]; Fe3+, 1 d) was 96.8 ± 1.2%, the “% Intact of 89Zr-complexes” value ([1]; Fe3+, 4 d) was 89.5 ± 0.7% and the “% Intact of 89Zr-complexes” value ([1]; Fe3+, 7 d) was 84.0 ± 0.4%. For the same compound, the “% Intact of 89Zr-complexes” value ([1]; Ga3+, 2 h) was 99.2 ± 0.1%, the “% Intact of 89Zr-complexes” value ([1]; Ga3+, 1 d) was 98.2 ± 0.2% and the “% Intact of 89Zr-complexes” value ([1]; Ga3+, 4 d) was 93.6 ± 0.6%. The “% Intact of 89Zr-complexes” value ([1]; Ga3+, 7 d) was 91.1 ± 1.4%, the “% Intact of 89Zr-complexes” value ([1]; Gd3+, 2 h) was 99.5 ± 0.4% and the “% Intact of 89Zr-complexes” value ([1]; Gd3+, 1 d) was 97.9 ± 0.4%. For the same compound, the “% Intact of 89Zr-complexes” value ([1]; Gd3+, 4 d) was 93.2 ± 1.0%, the “% Intact of 89Zr-complexes” value ([1]; Gd3+, 7 d) was 91.7 ± 2.0% and the “% Intact of 89Zr-complexes” value ([1]; Mg2+, 2 h) was 99.2 ± 0.2%. The “% Intact of 89Zr-complexes” value ([1]; Mg2+, 1 d) was 99.4 ± 0.1%, the “% Intact of 89Zr-complexes” value ([1]; Mg2+, 4 d) was 98.1 ± 0.1% and the “% Intact of 89Zr-complexes” value ([1]; Mg2+, 7 d) was 96.3 ± 0.4%. The “% Intact of 89Zr-complexes” value ([1]; Zn2+, 2 h) was 99.0 ± 0.1%, the “% Intact of 89Zr-complexes” value ([1]; Zn2+, 1 d) was 95.4 ± 0.3% and the “% Intact of 89Zr-complexes” value ([1]; Zn2+, 4 d) was 89.4 ± 1.5%. The “% Intact of 89Zr-complexes” value ([1]; Zn2+, 7 d) was 84.7 ± 2.7%, the “% Intact of 89Zr-complexes” value ([2]; EDTA 100-fold, pH 5.0, 37 C, 1 h) was 98.6 ± 0.3% and the “% Intact of 89Zr-complexes” value ([2]; EDTA 100-fold, pH 5.0, 37 C, 1 d) was 91.8 ± 0.9%. For the same compound, the “% Intact of 89Zr-complexes” value ([2]; EDTA 100-fold, pH 5.0, 37 C, 3 d) was 84.3 ± 0.7%, the “% Intact of 89Zr-complexes” value ([2]; EDTA 100-fold, pH 5.0, 37 C, 5 d) was 78.6 ± 1.0% and the “% Intact of 89Zr-complexes” value ([2]; EDTA 100-fold, pH 5.0, 37 C, 7 d) was 56.5 ± 1.4%. The “% Intact of 89Zr-complexes” value ([2]; EDTA 100-fold, pH 7.0, 37 C, 1 h) was 99.8 ± 0.1%, the “% Intact of 89Zr-complexes” value ([2]; EDTA 100-fold, pH 7.0, 37 C, 1 d) was 98.6 ± 0.1% and the “% Intact of 89Zr-complexes” value ([2]; EDTA 100-fold, pH 7.0, 37 C, 3 d) was 96.8 ± 0.3%. The “% Intact of 89Zr-complexes” value ([2]; EDTA 100-fold, pH 7.0, 37 C, 5 d) was 94.5 ± 0.5%, the “% Intact of 89Zr-complexes” value ([2]; EDTA 100-fold, pH 7.0, 37 C, 7 d) was 92.5 ± 0.4% and the “% Intact of 89Zr-complexes” value ([2]; EDTA 500-fold, pH 5.0, 37 C, 1 h) was 97.4 ± 0.4%. The “% Intact of 89Zr-complexes” value ([2]; EDTA 500-fold, pH 5.0, 37 C, 1 d) was 89.4 ± 0.7%, the “% Intact of 89Zr-complexes” value ([2]; EDTA 500-fold, pH 5.0, 37 C, 3 d) was 72.4 ± 1.4% and the “% Intact of 89Zr-complexes” value ([2]; EDTA 500-fold, pH 5.0, 37 C, 5 d) was 66.7 ± 0.7%. For the same compound, the “% Intact of 89Zr-complexes” value ([2]; EDTA 500-fold, pH 5.0, 37 C, 7 d) was 53.8 ± 0.8%, the “% Intact of 89Zr-complexes” value ([2]; EDTA 500-fold, pH 7.0, 37 C, 1 h) was 99.5 ± 0.3% and the “% Intact of 89Zr-complexes” value ([2]; EDTA 500-fold, pH 7.0, 37 C, 1 d) was 98.2 ± 0.1%. For the same compound, the “% Intact of 89Zr-complexes” value ([2]; EDTA 500-fold, pH 7.0, 37 C, 3 d) was 94.9 ± 1.1%, the “% Intact of 89Zr-complexes” value ([2]; EDTA 500-fold, pH 7.0, 37 C, 5 d) was 91.4 ± 0.3% and the “% Intact of 89Zr-complexes” value ([2]; EDTA 500-fold, pH 7.0, 37 C, 7 d) was 89.3 ± 0.6%. For the same compound, the “% Intact of 89Zr-complexes” value ([2]; EDTA 1000-fold, pH 5.0, 37 C, 1 h) was 96.3 ± 0.5%, the “% Intact of 89Zr-complexes” value ([2]; EDTA 1000-fold, pH 5.0, 37 C, 1 d) was 87.3 ± 1.2% and the “% Intact of 89Zr-complexes” value ([2]; EDTA 1000-fold, pH 5.0, 37 C, 3 d) was 67.5 ± 1.1%. The “% Intact of 89Zr-complexes” value ([2]; EDTA 1000-fold, pH 5.0, 37 C, 5 d) was 58.9 ± 1.4%, the “% Intact of 89Zr-complexes” value ([2]; EDTA 1000-fold, pH 5.0, 37 C, 7 d) was 43.7 ± 1.1% and the “% Intact of 89Zr-complexes” value ([2]; EDTA 1000-fold, pH 7.0, 37 C, 1 h) was 99.2 ± 0.1%. The “% Intact of 89Zr-complexes” value ([2]; EDTA 1000-fold, pH 7.0, 37 C, 1 d) was 97.9 ± 0.1%, the “% Intact of 89Zr-complexes” value ([2]; EDTA 1000-fold, pH 7.0, 37 C, 3 d) was 91.5 ± 0.6% and the “% Intact of 89Zr-complexes” value ([2]; EDTA 1000-fold, pH 7.0, 37 C, 5 d) was 84.9 ± 0.6%. The “% Intact of 89Zr-complexes” value ([2]; EDTA 1000-fold, pH 7.0, 37 C, 7 d) was 79.4 ± 1.2%, the “Radio-ITLC peak of complex in human serum” value [3] was 95.2% and the Radioactivity in blood (Biodistribution studies) was 0.0005 ± 0.001 % ID per g. It also gave a Radioactivity in bone (Biodistribution studies) of 2.63 ± 0.12 % ID per g, a Radioactivity in kidney (Biodistribution studies) of 0.32 ± 0.045 % ID per g and a Radioactivity in liver (Biodistribution studies) of 0.036 ± 0.002 % ID per g.
